Molecular target: Pseudomonas aeruginosa LpxC enzyme (Pseudomonas aeruginosa (strain ATCC 15692 / DSM 22644 / CIP 104116 / JCM 14847 / LMG 12228 / 1C / PRS 101 / PAO1), UniProt P47205)
Assay: biochemical
Format: biochemical
Settings: inhibitory activity on Pseudomonas aeruginosa LpxC enzyme, class symbols A/B/C; read-out: Enzyme inhibitory activity

Row | Compound | IC50 [nM]
1 | CNC(=O)C(C(=O)NO)N(C)C(=O)c1ccc(-c2ccc(C(C)(F)F)cc2)cc1 (stereo not shown) [Compound 253, 2-[{[4′-(1,1-difluoroethyl)biphenyl-4-yl]carbonyl}(methyl)amino]-N-hydroxy-N′-methylpropanediamide] | < 10
2 | CNC(=O)C(C(=O)NO)N(C)C(=O)c1ccc(-c2ccc(C3(C)OCCO3)cc2)cc1 (stereo not shown) [Compound 254, N-hydroxy-N′-methyl-2-(methyl {[4′-(2-methyl-1,3-dioxolan-2-yl)biphenyl-4-yl]carbonyl}amino)propanediamide] | 10 to 100
3 | CNC(=O)C(C(=O)NO)N(C)C(=O)c1ccc(-c2ccc(OCCF)cc2)cc1 (stereo not shown) [Compound 255, 2-[{[4′-(2-fluoroethoxy)biphenyl-4-yl]carbonyl}(methyl)amino]-N-hydroxy-N′-methylpropanediamide] | < 10
4 | CNC(=O)C(C(=O)NO)N(C)C(=O)c1ccc(-c2ccc(N3CCCC3)cc2)cc1 (stereo not shown) [Compound 256, N-hydroxy-N′-methyl-2-(methyl {[4′-(pyrrolidin-1-yl)biphenyl-4-yl]carbonyl}amino)propanediamide] | < 10
5 | CCCNC(=O)c1ccc(-c2ccc(C(=O)N(C)C(C(=O)NC)C(=O)NO)cc2)cc1 (stereo not shown) [Compound 257, N-[1-(hydroxyamino)-3-(methylamino)-1,3-dioxopropan-2-yl]-N-methyl-N′-propylbiphenyl-4,4′-dicarboxamide] | 10 to 100
6 | CNC(=O)C(C(=O)NO)N(C)C(=O)c1ccc(-c2ccc3c(c2)OC(F)(F)O3)cc1 (stereo not shown) [Compound 258, 2-{[4-(2,2-difluoro-1,3-benzodioxol-5-yl)benzoyl](methyl)amino}-N-hydroxy-N′-methylpropanediamide] | < 10
7 | CNC(=O)C(C(=O)NO)N(C)C(=O)c1ccc(-c2ccc(CN(C)OC)cc2)cc1 (stereo not shown) [Compound 259, N-hydroxy-2-{[(4′-{[methoxy(methyl)amino]methyl}biphenyl-4-yl)carbonyl](methyl)amino}-N′-methylpropanediamide] | 10 to 100
8 | CNC(=O)C(C(=O)NO)N(C)C(=O)c1ccc(-c2ccc(/C=N/OC)cc2)cc1 (stereo not shown) [Compound 260, N-hydroxy-2-[({4′-[(E)-(methoxyimino)methyl]biphenyl-4-yl}carbonyl)(methyl)amino]-N′-methylpropanediamide] | < 10
9 | CNC(=O)C(C(=O)NO)N(C)C(=O)c1ccc(-c2ccc(C(C)O)cc2)cc1 (stereo not shown) [Compound 261, N-hydroxy-2-[{[4′-(1-hydroxyethyl)biphenyl-4-yl]carbonyl}(methyl)amino]-N′-methylpropanediamide] | 10 to 100
10 | CNC(=O)C(C(=O)NO)N(C)C(=O)c1ccc(-c2ccc(C(C)(C)O)cc2)cc1 (stereo not shown) [Compound 262, N-hydroxy-2-[{[4′-(2-hydroxypropan-2-yl)biphenyl-4-yl]carbonyl}(methyl)amino]-N′-methylpropanediamide] | 10 to 100
11 | CNC(=O)C(C(=O)NO)N(C)C(=O)c1ccc(-c2ccc(OCCCN3CC=CCC3)cc2)cc1 (stereo not shown) [Compound 263, 2-[({4′-[3-(3,6-dihydropyridin-1(2H)-yl)propoxy]biphenyl-4-yl}carbonyl)(methyl)amino]-N-hydroxy-N′-methylpropanediamide] | 10 to 100
12 | CNC(=O)C(C(=O)NO)N(C)C(=O)c1ccc(-c2ccc(OCCCN3CCC(F)(F)CC3)cc2)cc1 (stereo not shown) [Compound 264, 2-[({4′-[3-(4,4-difluoropiperidin-1-yl)propoxy]biphenyl-4-yl}carbonyl)(methyl)amino]-N-hydroxy-N′-methylpropanediamide] | < 10
13 | CNC(=O)C(C(=O)NO)N(C)C(=O)c1ccc(-c2ccc(CC(=O)N(C)C)cc2)cc1 (stereo not shown) [Compound 265, 2-[({4′-[2-(dimethylamino)-2-oxoethyl]biphenyl-4-yl}carbonyl)(methyl)amino]-N-hydroxy-N′-methylpropanediamide] | 10 to 100
14 | CNC(=O)C(C(=O)NO)N(C)C(=O)c1ccc(-c2ccc(CCC(=O)N(C)C)cc2)cc1 (stereo not shown) [Compound 266, 2-[({4′-[3-(dimethylamino)-3-oxopropyl]biphenyl-4-yl}carbonyl)(methyl)amino]-N-hydroxy-N′-methylpropanediamide] | 10 to 100
15 | CNC(=O)C(C(=O)NO)N(C)C(=O)c1ccc(-c2ccc(N3CCN(C)CC3)cc2)cc1 (stereo not shown) [Compound 267, N-hydroxy-N′-methyl-2-(methyl {[4′-(4-methylpiperazin-1-yl)biphenyl-4-yl]carbonyl}amino)propanediamide] | 10 to 100
16 | CNC(=O)C(C(=O)NO)N(C)C(=O)c1ccc(-c2ccc(NC3CCC3)cc2)cc1 (stereo not shown) [Compound 268, 2-[{[4′-(cyclobutylamino)biphenyl-4-yl]carbonyl}(methyl)amino]-N-hydroxy-N′-methylpropanediamide] | < 10
17 | CNC(=O)C(C(=O)NO)N(C)C(=O)c1ccc(-c2ccc3c(c2)OC(C)(C)O3)cc1 (stereo not shown) [Compound 269, 2-{[4-(2,2-dimethyl-1,3-benzodioxol-5-yl)benzoyl](methyl)amino}-N-hydroxy-N′-methylpropanediamide] | < 10

Row | Compound | IC50 [nM]
18 | CNC(=O)C(C(=O)NO)N(C)C(=O)c1ccc(-c2ccc(/N=C/NO)cc2)cc1 (stereo not shown) [Compound 272, N-hydroxy-2-{[(4′-{[(E)-(hydroxyamino)methylidene]amino}biphenyl-4-yl)carbonyl](methyl)amino}-N′-methylpropanediamide] | < 10
19 | CNC(=O)C(C(=O)NO)N(C)C(=O)C1CCC(c2ccc(Cl)cc2)CC1 (stereo not shown) [Compound 273, 2-[{[4-(4-chlorophenyl)cyclohexyl]carbonyl}(methyl)amino]-N-hydroxy-N′-methylpropanediamide] | > 100
20 | CNC(=O)C(C(=O)NO)N(C)C(=O)c1ccc(-c2ccc(OCCCN(C)C)cc2)cc1 (stereo not shown) [Compound 274, 2-[({4′-[3-(dimethylamino)propoxy]biphenyl-4-yl}carbonyl)(methyl)amino]-N-hydroxy-N′-methylpropanediamide] | 10 to 100
21 | CNC(=O)C(C(=O)NO)N(C)C(=O)c1ccc(-c2ccc(/C=N/N(C)C)cc2)cc1 (stereo not shown) [Compound 275, 2-[({4′-[(E)-(dimethylhydrazinylidene)methyl]biphenyl-4-yl}carbonyl)(methyl)amino]-N-hydroxy-N′-methylpropanediamide] | < 10
22 | CNC(=O)C(C(=O)NO)N(C)C(=O)c1ccc(-c2ccc(OCCCN3CC(OC)C3)cc2)cc1 (stereo not shown) [Compound 276, N-hydroxy-2-[({4′-[3-(3-methoxyazetidin-1-yl)propoxy]biphenyl-4-yl}carbonyl)(methyl)amino]-N′-methylpropanediamide] | < 10
23 | CNC(=O)C(C(=O)NO)N(C)C(=O)c1ccc(-c2ccc(OCCCN3CCCOCC3)cc2)cc1 (stereo not shown) [Compound 277, N-hydroxy-N′-methyl-2-[methyl({4′-[3-(1,4-oxazepan-4-yl)propoxy]biphenyl-4-yl}carbonyl)amino]propanediamide] | < 10
24 | CNC(=O)C(C(=O)NO)N(C)C(=O)c1ccc(-c2cccc(NC)c2)cc1 (stereo not shown) [Compound 278, N-hydroxy-N′-methyl-2-(methyl {[3′-(methylamino)biphenyl-4-yl]carbonyl}amino)propanediamide] | 10 to 100
25 | CNC(=O)C(C(=O)NO)N(C)C(=O)c1ccc(-c2cccc(OC)c2)cc1 (stereo not shown) [Compound 279, N-hydroxy-2-{[(3′-methoxybiphenyl-4-yl)carbonyl](methyl)amino}-N′-methylpropanediamide] | 10 to 100
26 | CNC(=O)C(C(=O)NO)N(C)C(=O)c1ccc(-c2ccc(OCC(C)(C)O)cc2)cc1 (stereo not shown) [Compound 280, N-hydroxy-2-[{[4′-(2-hydroxy-2-methylpropoxy)biphenyl-4-yl]carbonyl}(methyl)amino]-N′-methylpropanediamide] | < 10
27 | CNC(=O)C(C(=O)NO)N(C)C(=O)c1ccc(-c2ccc3c(c2)ncn3C)cc1 (stereo not shown) [Compound 281, N-hydroxy-N′-methyl-2-{methyl[4-(1-methyl-1H-benzimidazol-5-yl)benzoyl]amino}propanediamide] | 10 to 100
28 | CNC(=O)C(C(=O)NO)N(C)C(=O)c1ccc(-c2ccc3ncn(C)c3c2)cc1 (stereo not shown) [Compound 282, N-hydroxy-N′-methyl-2-{methyl[4-(1-methyl-1H-benzimidazol-6-yl)benzoyl]amino}propanediamide] | 10 to 100
29 | CNC(=O)C(C(=O)NO)N(C)C(=O)c1ccc(-c2ccc(OCC(F)CN3CCOCC3)cc2)cc1 (stereo not shown) [Compound 283, 2-[({4′-[2-fluoro-3-(morpholin-4-yl)propoxy]biphenyl-4-yl}carbonyl)(methyl)amino]-N-hydroxy-N′-methylpropanediamide] | < 10
30 | CNC(=O)C(C(=O)NO)N(C)C(=O)c1ccc(-c2ccc(N)cc2)cc1 (stereo not shown) [Compound 284, 2-{[(4′-aminobiphenyl-4-yl)carbonyl](methyl)amino}-N-hydroxy-N′-methylpropanediamide] | 10 to 100
31 | CCOCc1ccc(-c2ccc(C(=O)N(C)C(C(=O)NC)C(=O)NO)cc2)cc1 (stereo not shown) [Compound 285, 2-[{[4′-(ethoxymethyl)biphenyl-4-yl]carbonyl}(methyl)amino]-N-hydroxy-N′-methylpropanediamide] | < 10
32 | CNC(=O)C(C(=O)NO)N(C)C(=O)c1ccc(-c2ccc(SCCCN3CCOCC3)cc2)cc1 (stereo not shown) [Compound 286, N-hydroxy-N′-methyl-2-{methyl[(4′-{[3-(morpholin-4-yl)propyl]sulfanyl}biphenyl-4-yl)carbonyl]amino}propanediamide] | < 10
33 | CNC(=O)C(C(=O)NO)N(C)C(=O)c1ccc(-c2ccc(N3CCC(CN4CCOCC4)C3)cc2)cc1 (stereo not shown) [Compound 287, N-hydroxy-N′-methyl-2-[methyl({4′-[3-(morpholin-4-ylmethyl)pyrrolidin-1-yl]biphenyl-4-yl}carbonyl)amino]propanediamide] | < 10
34 | CNC(=O)C(C(=O)NO)N(C)C(=O)c1ccc(-c2ccc(OCCCN3CCSCC3)cc2)cc1 (stereo not shown) [Compound 288, N-hydroxy-N′-methyl-2-[methyl({4′-[3-(thiomorpholin-4-yl)propoxy]biphenyl-4-yl}carbonyl)amino]propanediamide] | < 10
